Assay [1] deals with T1, CXCR2 (Homo sapiens, UniProt P25025).
T1 construct: purchased Biosignal; host or cells: CHO cells overexpressing hCXCR2 (membranes)
T1 sequence (P25025 1-360): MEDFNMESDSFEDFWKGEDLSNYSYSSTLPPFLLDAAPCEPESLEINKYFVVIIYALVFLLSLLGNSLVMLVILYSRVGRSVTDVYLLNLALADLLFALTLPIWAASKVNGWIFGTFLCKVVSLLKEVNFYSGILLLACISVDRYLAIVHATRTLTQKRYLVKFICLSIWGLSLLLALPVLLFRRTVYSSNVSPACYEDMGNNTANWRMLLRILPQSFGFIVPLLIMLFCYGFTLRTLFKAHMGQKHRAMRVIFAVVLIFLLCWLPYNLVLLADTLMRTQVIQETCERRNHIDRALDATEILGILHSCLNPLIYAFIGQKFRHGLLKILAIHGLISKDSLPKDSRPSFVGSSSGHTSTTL
Briefly: CXCR2 SPA receptor binding assay. On the procedure: For each well of a 96 well plate, a reaction mixture of 4 μg hCXCR2-CHO overexpressing membranes (Biosignal) and 200 μg/well WGA-SPA beads (Amersham) in 100 μl can be prepared in CXCR2 assay buffer (25 mM HEPES, pH 7.4, 2 mM CaCl2, 1 mM MgCl2). A 0.4 nM stock of ligand, [125I]-IL-8 (NEN), can be prepared in the CXCR2 assay buffer. 20× stock solutions of test compounds can be prepared in DMSO (Sigma). A 6× stock solution of GRO-α (R&D) can be prepared in CXCR2 assay buffer. The above solutions can be added to a 96-well assay plate (PerkinElmer or Corning) as follows: 10 μl test compound or DMSO, 40 ul CXCR2 assay buffer or GRO-α stock, 100 μl of reaction mixture, 50 μl of ligand stock (Final [Ligand]=0.1 nM). When 40× stock solutions of test compounds in DMSO can be prepared, then the above protocol can be used except instead 5 μl test compound or DMSO and 45 μl CXCR2 assay buffer can be used. The assay plates can be shaken for 5 minutes on a plate shaker, then incubated for 2-8 hours before cpm/well can be determined in Microbeta Trilux counter (PerkinElmer). % Inhibition of total binding minus non-specific binding (250 nM Gro-α or 50 μM antagonist) can be determined and IC50 values can be calculated.

The target in assay [2] is T2, CXCR1 (Homo sapiens, UniProt P25024).
T2 construct: purchased Biosignal; host or cells: CHO cells overexpressing hCXCR1 (membranes)
T2 sequence (P25024 1-350): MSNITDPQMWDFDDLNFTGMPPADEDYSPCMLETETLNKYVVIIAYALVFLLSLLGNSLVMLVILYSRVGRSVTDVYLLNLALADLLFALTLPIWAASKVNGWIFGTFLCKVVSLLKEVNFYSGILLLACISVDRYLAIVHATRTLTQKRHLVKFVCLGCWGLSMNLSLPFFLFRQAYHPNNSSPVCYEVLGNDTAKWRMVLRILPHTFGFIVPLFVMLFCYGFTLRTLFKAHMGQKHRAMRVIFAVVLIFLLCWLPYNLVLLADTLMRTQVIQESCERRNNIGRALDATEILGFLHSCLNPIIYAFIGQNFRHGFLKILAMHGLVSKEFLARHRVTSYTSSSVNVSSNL
In words: CXCR1 SPA receptor binding assay. Here is the method:
For each well of a 96 well plate, a reaction mixture of 10 μg hCXCR1-CHO overexpressing membranes (Biosignal) and 200 μg/well WGA-SPA beads (Amersham) in 100 μl can be prepared in CXCR1 assay buffer (25 mM HEPES, pH 7.8, 2 mM CaCl2, 1 mM MgCl2, 125 mM NaCl, 0.1% BSA) (Sigma). A 0.4 nM stock of ligand, [125I]-IL-8 (NEN) can be prepared in the CXCR1 assay buffer. 20× stock solutions of test compounds can be prepared in DMSO (Sigma). A 6× stock solution of IL-8 (R&D) can be prepared in CXCR2 assay buffer. The above solutions can be added to a 96-well assay plate (PerkinElmer) as follows: 10 μl test compound or DMSO, 40 μl CXCR1 assay buffer or IL-8 stock, 100 μl of reaction mixture, 50 μl of ligand stock (Final [Ligand]=0.1 nM). The assay plates can be shaken for 5 minutes on plate shaker, then incubated for 8 hours before cpm/well can be determined in Microbeta Trilux counter (PerkinElmer). % Inhibition of Total binding-NSB (250 nM IL-8) can be determined for IC50 values.

On to `CC[C@@H](Nc1nc2nonc2nc1Nc1cccc(C(=O)N(C)C)c1O)c1ccc(C)o1` [Compound 4], for which the Ki in assay [1] is 0.196 µM; in assay [2] it was 4.22 µM.
